Measurements published in patent EP2949653A1, “ISOXAZOLE DERIVATIVES AS LEUKOTRIENE BIOSYNTHESIS INHIBITORS” (Banoglu, Erden, priority 2014, dated 2015).

Legend:
5-LO [1] = molecular target: T1, 5-LO (Homo sapiens, UniProt P09917); assay: 5-LO mediated product formation in neutrophil homogenates (reducing conditions); assay type: biochemical; parameters: endogenous in cells; host or cells: neutrophil homogenates; conditions: with or without GSH (1 mM), 20 µM AA (Figure 6)
T1 sequence (P09917 1-674): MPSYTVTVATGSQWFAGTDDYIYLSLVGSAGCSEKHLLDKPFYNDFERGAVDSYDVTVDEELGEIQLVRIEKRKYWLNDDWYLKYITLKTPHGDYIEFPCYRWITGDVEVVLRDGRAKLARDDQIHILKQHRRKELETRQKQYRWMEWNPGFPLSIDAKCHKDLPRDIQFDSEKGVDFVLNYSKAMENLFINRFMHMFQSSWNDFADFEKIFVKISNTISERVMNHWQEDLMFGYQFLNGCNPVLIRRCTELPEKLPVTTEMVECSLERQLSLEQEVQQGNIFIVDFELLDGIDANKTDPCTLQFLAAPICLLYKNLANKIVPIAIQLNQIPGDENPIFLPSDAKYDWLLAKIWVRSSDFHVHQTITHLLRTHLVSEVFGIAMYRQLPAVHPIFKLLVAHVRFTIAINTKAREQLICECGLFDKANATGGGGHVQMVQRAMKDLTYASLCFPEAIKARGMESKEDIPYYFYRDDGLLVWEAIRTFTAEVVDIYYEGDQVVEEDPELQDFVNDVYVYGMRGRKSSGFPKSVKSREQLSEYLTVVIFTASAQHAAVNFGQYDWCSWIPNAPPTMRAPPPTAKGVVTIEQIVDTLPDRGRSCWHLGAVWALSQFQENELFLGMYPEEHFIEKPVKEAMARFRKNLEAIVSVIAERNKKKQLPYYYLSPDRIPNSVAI
Experimental: (§1) Cell based and cell-free assays carried out in biological studies, immunofluorescence microscopy analysis and zymosan-induced peritonitis in mice are performed as described hereinabove (Pegola, C. and et al., British J. Pharmacology, 2014, D01:10.1111/bph.12625). In the cell based assays (intact neutrophils or monocytes), 5-LO mediated product formation is started, after pre-incubation with test compounds (or control DMSO) for 15 min. at 37 °C, with addition of Ca-ionophore A23187 (2.5 µM) to the fresh 5 x 10^6 neutrophils or monocytes suspended in 1 ml of PGC buffer (phosphate buffered saline (PBS) solution containing 1 mg ml^-1 glucose and 1mM CaCl2, pH 7.4). After the incubation for 10 min. at 37 °C, the reaction is ended with addition of 1 ml of methanol, and 30 µL 1 N HCl, 200 ng prostaglandin B1 and 500 µL PBS are added to the mixture. […] Resulting 5-LO mediated products are extracted and analysed by the known method of high pressure liquid chromatography (HPLC) (Pergola, C. Proc Natl. Acad. Sci. U.S.A. 2008, 105, 19881). 5-LO mediated product formation (LTB4 and all trans isomers, and 5 (S)-hydro(pero)xy-6-trans-8, 11, 14-cis-eicosatetraenoic acid, 5-H(p)ETE) is expressed as ng per 10^6 cell. Cysteinyl-LTs have not been analyzed because that the amount of C4, D4 and E4 and LTB4 oxidation products are below the detection limit. […]

[2] = test system: 5-LO mediated product synthesis; assay: 5-LO mediated product synthesis in neutrophils stimulated with LPS plus fMLP; assay type: cell-based; conditions: Homo sapiens, Neutrophil
translocation of 5-LO = assay: 5-LO subcellular localization by immunofluorescence microscopy; assay type: cell-based; conditions: 0.1 and 1 µM; Ca-ionophore A23187 (2.5 µM; 3 min) (Figure 8)
5-LO [3] = molecular target: T1, 5-LO; assay: 5-LO mediated product synthesis in HEK293 cells transfected with only 5-LO; assay type: cell-based; conditions: 2.5 µM A23187 plus 3 µM AA (Figure 7)
Experimental: (§2) Compound 9hj inhibited 5-LO mediated product synthesis in HEK293 cells transfected with only 5-LO, with IC50 of 900 nM. […] After preincubation of cells with 9hj for 15 min at 37°C, cells were stimulated with 2.5 µM A23187 plus 3 µM AA for 10 min at 37°C. Data are expressed as percentage of vehicle control (0.1% DMSO). 100% controls correspond to 157.48 ng mL^-1 for 5-LO transfected cells and 155.15 ng mL^-1 for 5-LO plus FLAP transfected cells.

5-LO plus FLAP = molecular target: T2, 5-LO plus FLAP (Homo sapiens, UniProt P20292); assay: 5-LO mediated product synthesis in HEK293 cells transfected with 5-LO plus FLAP; assay type: cell-based; conditions: 2.5 µM A23187 plus 3 µM AA (Figure 7)
T2 construct: expressed in transfected cells; host or cells: HEK293 (stably transfected)
T2 sequence (P20292 1-161): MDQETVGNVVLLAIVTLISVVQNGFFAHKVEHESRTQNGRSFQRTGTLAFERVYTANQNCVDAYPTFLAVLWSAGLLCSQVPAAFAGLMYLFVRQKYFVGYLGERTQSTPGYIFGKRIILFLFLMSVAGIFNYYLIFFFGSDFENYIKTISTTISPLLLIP
Experimental: as §2

[4] = test system: 5-LO mediated product formation; assay: 5-LO mediated product formation in intact monocytes stimulated with A23187; assay type: cell-based; conditions: Homo sapiens, Monocyte; A23187 (2.5 µM), absence of exogenous AA (Figure 3)
Experimental: as §1

[5] = test system: 5-LO mediated product synthesis; assay: 5-LO mediated product synthesis in monocytes stimulated with LPS plus fMLP; assay type: cell-based; conditions: Homo sapiens, Monocyte

With O=C(O)c1noc(-c2ccc(OCc3ccc4ccccc4n3)cc2)c1-c1ccc(Cl)cc1 [Compound 9hj, 4-(4-Chlorophenyl)-5-(4-(quinolin-2-ylmethoxy)phenyl)isoxazole-3-carboxylic acid] the IC50 (5-LO [1]) was 1000 nM, the IC50 [2] was 10 nM and the “translocation of 5-LO from soluble subcellular compartment to nuclear membrane” value (translocation of 5-LO) was “inhibited translocation”. For the same compound, the IC50 (5-LO [3]) was 900 nM, the IC50 (5-LO plus FLAP) was 310 nM and the IC50 [4] was 5 nM. It also gave an IC50 [5] of 8 nM.
